Like-named read-outs stand apart in the source and are kept apart here.
Legend:
iAChSnFR0.4 = experiment: fluorescence titration of purified sensor; assay type: binding, Thermoanaerobacter sp.; conditions: read-out: apparent Kd; 200 nM purified sensor
X513-OpuBC = experiment: isothermal titration calorimetry; assay type: binding, Thermoanaerobacter sp. X513; conditions: 25 °C, PBS, single experiment
y-iAChSnFR = conditions: 200 nM purified sensor
iAChSnFR (iAChSnFR0.9) = conditions: 200 nM soluble purified sensor

CC(=O)OCC[N+](C)(C)C [acetylcholine]
Kd (iAChSnFR0.4): 220 ± 16 µM
Kd (X513-OpuBC; fit with fixed N = 1): 95 µM
Kd (y-iAChSnFR): 0.5 µM
Kd (iAChSnFR (iAChSnFR0.9); read-out: apparent Kd): 1.3 ± 1 µM

C[N+](C)(C)CCO [choline]
Kd (X513-OpuBC; variable stoichiometry fit, N = 0.55): 8 µM
Kd (y-iAChSnFR): 20 µM
Kd (iAChSnFR (iAChSnFR0.9); read-out: apparent Kd): 45 ± 1.1 µM

NCCc1c[nH]c2ccc(O)cc12 [serotonin]
Kd (iAChSnFR (iAChSnFR0.9); read-out: affinity): > 1000 µM
